Reference: PMC8198056 (Molecules, 2021)

Legend:
[1] = tested on: mice; design: method as in PMID 17132815, PMID 23652222; conditions: cited from earlier work
[2] = tested on: mice; assay: Formalin test (formalin-induced acute inflammatory pain); conditions: for %Antinociceptive effect Phase I: Phase I 0-5 min; for %Antinociceptive effect Phase II: Phase II 15-60 min
[3] = tested on: mice; assay: Naloxone-precipitated withdrawal syndrome; conditions: 15.5 µmol/kg s.c. daily 5 days; naloxone 1 mg/kg s.c.
[4] = tested on: mice; assay: Open-field test (spontaneous locomotor activity); conditions: 15.5 µmol/kg s.c. daily, day 1 to day 4
[5] = tested on: mice; assay: Conditioned place preference (CPP); conditions: 15.5 µmol/kg s.c., 4-day conditioning
[6] = tested on: mice; assay: CFA-induced chronic inflammatory pain, thermal sensitivity (Hargreaves test); format: in vivo, mouse; conditions: 15.5 µmol/kg s.c.
[7] = tested on: mice; assay: CFA-induced chronic inflammatory pain, mechanical sensitivity (von Frey test); format: in vivo, mouse; conditions: 15.5 µmol/kg s.c.

## O=C1Cc2ccccc2N1C1CCN(C2C3CCCC2CCC3)CC1 (stereo not drawn) [SR16435, 1-(1-(bicyclo [3.3. 1]nonan-9-yl)piperidin-4-yl) indolin-2-one]
[1]
  CPP in mice: induced CPP in mice to the same extent as morphine

## CN1CC[C@]23c4c5ccc(O)c4O[C@H]2[C@@H](O)C=C[C@H]3[C@H]1C5 [morphine, reference compound]
[2]; 3.11 µmol/kg s.c.
  %Antinociceptive effect Phase I: 19.4 ± 6.7%
  %Antinociceptive effect Phase II: 24.8 ± 11.6%
[2]; 7.77 µmol/kg s.c.
  %Antinociceptive effect Phase I: 32.6 ± 5.7%
  %Antinociceptive effect Phase II: 57.5 ± 8.3%
[2]; 15.5 µmol/kg s.c.
  Pain response counted between 15 and 60 min: almost complete inhibition of the pain response
  %Antinociceptive effect Phase I: 38.4 ± 10.9%
  %Antinociceptive effect Phase II: 79.1 ± 7.5%
[3]
  Global withdrawal score vs saline: significantly increased withdrawal
[4]
  Spontaneous locomotor activity (distance traveled) vs saline: significant increase in the distance traveled
[5]
  CPP response vs saline: significant CPP response
[6]
  Time of peak antihyperalgesic effect: 30 min
  Time points of significant reduction in thermal hyperalgesia vs saline: 30 min and one hour
[6]; 30 min
  % reversal of thermal sensitivity: 68.6%
[6]; 1 h
  % reversal of thermal sensitivity: 36.1%
[6]; 2 h
  % reversal of thermal sensitivity: 19.6%
[6]; 3 h
  % reversal of thermal sensitivity: 13.8%
[6]; 4 h
  % reversal of thermal sensitivity: -1.96%
[6]; 5 h
  % reversal of thermal sensitivity: 0.43%
[6]; 6 h
  % reversal of thermal sensitivity: -0.40%
[6]; 24 h
  % reversal of thermal sensitivity: 0.00%
[7]
  Time points of significant effect on mechanical stimulation vs saline: 30 min and one hour
[7]; 30 min
  % reversal of mechanical sensitivity: 63.4%
[7]; 1 h
  % reversal of mechanical sensitivity: 50.6%
[7]; 2 h
  % reversal of mechanical sensitivity: 18.9%
[7]; 3 h
  % reversal of mechanical sensitivity: 6.62%
[7]; 4 h
  % reversal of mechanical sensitivity: 1.57%
[7]; 5 h
  % reversal of mechanical sensitivity: 11.7%
[7]; 6 h
  % reversal of mechanical sensitivity: -2.29%
[7]; 24 h
  % reversal of mechanical sensitivity: 1.68%
